Test results as given in article PMC8218635, “Structural Insights into the Mechanisms of Action of Functionally Distinct Classes of Chikungunya Virus Nonstructural Protein 1 Inhibitors” (Antimicrobial Agents and Chemotherapy, 2021).
Read-outs that look alike come from different tables or passages of the source.

What was measured:
CHIKV = assay: microbe, parasite or virus in culture; assay type: cell-based
wt SFV nsP1 [1] = target: T1, wt SFV nsP1 (Semliki forest virus, UniProt P08411); design: method as in PMID 31964798; settings: cited from earlier work
T1 sequence (P08411 1-537 limits assumed): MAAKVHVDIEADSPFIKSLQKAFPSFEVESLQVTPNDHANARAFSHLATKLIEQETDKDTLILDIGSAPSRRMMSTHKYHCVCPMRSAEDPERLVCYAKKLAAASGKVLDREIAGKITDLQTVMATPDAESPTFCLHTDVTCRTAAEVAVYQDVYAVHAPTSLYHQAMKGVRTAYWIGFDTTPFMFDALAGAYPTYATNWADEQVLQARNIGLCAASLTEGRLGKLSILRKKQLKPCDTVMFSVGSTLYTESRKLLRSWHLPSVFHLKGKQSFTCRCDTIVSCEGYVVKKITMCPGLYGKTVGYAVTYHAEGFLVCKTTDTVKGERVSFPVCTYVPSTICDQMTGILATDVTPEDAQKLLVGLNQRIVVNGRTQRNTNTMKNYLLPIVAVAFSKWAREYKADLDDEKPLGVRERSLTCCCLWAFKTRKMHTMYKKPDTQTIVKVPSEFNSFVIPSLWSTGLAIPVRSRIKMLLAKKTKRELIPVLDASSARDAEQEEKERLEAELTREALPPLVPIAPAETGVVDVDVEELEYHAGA

SFV = assay: microbe, parasite or virus in culture; assay type: cell-based; settings: multicycle CPE reduction assay, Vero E6 cells, NA = not active
rCHIKV P34S = assay type: cell-based, Chikungunya virus; settings: for Fold resistance, rCHIKV P34S: (EC50 for the variant)/(EC50 for the wt); for EC50: CPE reduction assay, Vero E6 cells; for Sensitivity or resistance of CHIKV nsP1-P34S to the compound: at the concentrations tested, Fig. 2
rCHIKV G230R + K299E = assay type: cell-based, Chikungunya virus; settings: for Fold resistance, rCHIKV G230R + K299E: (EC50 for the variant)/(EC50 for the wt); for EC50: CPE reduction assay, Vero E6 cells; for Sensitivity or resistance of CHIKV nsP1-G230R+K299E to the compound: Fig. 2
rCHIKV S454G + W456R = assay type: cell-based, Chikungunya virus; settings: for Fold resistance, rCHIKV S454G + W456R: (EC50 for the variant)/(EC50 for the wt); for EC50: CPE reduction assay, Vero E6 cells; for Sensitivity or resistance of CHIKV nsP1-S454G+W456R to the compound: at the doses tested, Fig. 2
SINV = test system: SINV; design: method as in PMID 31964798; settings: cited from earlier work
wt CHIKV nsP1 = wt CHIKV nsP1 (Chikungunya virus, UniProt Q8JUX6); assay type: biochemical; settings: wt CHIKV nsP1, 10 μM SAM; for Inhibition of formation of the covalent [32P]m7GMP-nsP1 intermediate: inhibitor 0.5 to 32 μM, Fig. 3C
in vitro = settings: African green monkey
wt SFV nsP1 [2] = target: T1, wt SFV nsP1; assay type: biochemical; settings: for Inhibition of formation of the covalent [32P]m7GMP-nsP1 complex: wt SFV nsP1, 100 μM SAM, inhibitor 50 μM to 1 mM, Fig. 3A
VEEV nsP1 = settings: cited from earlier work
CHIKV nsP1 = settings: enzymatic assays measuring either MTase or GTase activity; cited from earlier work
[3] = Chikungunya virus, Vero C1008, 96 h, read-out: EC50, concentration that reduces virus-induced CPE by 50%, CHIKV, multicycle CPE reduction assay, Vero E6 cells, 96 h
[4] = Chikungunya virus, Vero C1008, read-out: EC50 for wt CHIKV, Table 2, wt CHIKV, CPE reduction assay, Vero E6 cells

| Compound | Fold resistance, rCHIKV P34S (rCHIKV P34S) | EC50 (rCHIKV P34S) [µM] | Fold resistance, rCHIKV G230R + K299E (rCHIKV G230R + K299E) | EC50 (rCHIKV G230R + K299E) [µM] | Sensitivity or resistance of CHIKV nsP1-G230R+K299E to the compound (rCHIKV G230R + K299E) | Fold resistance, rCHIKV S454G + W456R (rCHIKV S454G + W456R) | EC50 (CHIKV; [3]) [µM] | EC50 (CHIKV; [4]) [µM] | EC50 (rCHIKV S454G + W456R) [µM] | CC50 (Vero E6 cells; African green monkey) [µM] | CC50 (in vitro) [µM] | Sensitivity or resistance of CHIKV nsP1-P34S to the compound (rCHIKV P34S) | Sensitivity or resistance of CHIKV nsP1-S454G+W456R to the compound (rCHIKV S454G + W456R) | Inhibition of formation of the covalent [32P]m7GMP-nsP1 complex (wt SFV nsP1 [2]) | Inhibition of formation of the covalent [32P]m7GMP-nsP1 intermediate (wt CHIKV nsP1) | other results |
| --- | --- | --- | --- | --- | --- | --- | --- | --- | --- | --- | --- | --- | --- | --- | --- | --- |
| CNc1ncnc2c1ncn2C1C(O)C(O)C(CCO)C1F (stereo not drawn) [FMA, 6′-β-fluoro-N^6-methyladenosine] | – | – | – | – | – | – | – | – | – | – | – | – | – | – | – | Activity in CHIKV CPE reduction assays (CHIKV; source of the data not stated): inactive |
| Nc1ncnc2c1ncn2C1C(F)=C(CCO)C(=O)C1O (stereo not drawn) [3′-Keto form of FHNA] | – | – | – | – | – | – | – | – | – | – | – | – | – | – | – | Inhibition of formation of the covalent [32P]m7GMP-nsP1 intermediate (wt SFV nsP1 [1]; wt SFV nsP1): only partially inhibited |
| 6′-β-Fluoro-homoaristeromycin [FHA] | 2.3 | 1.6 ± 0.2 | 14.3 | > 10 | resistant | 1 | – | – | – | – | – | – | – | – | – | EC50 (CHIKV; CHIKV, multicycle CPE reduction assay, Vero E6 cells, 96 h, read-out: EC50, concentration that reduces virus-induced CPE by 50%): 0.7 ± 0.08 µM; EC50 (CHIKV; Table 2, wt CHIKV, CPE reduction assay, Vero E6 cells, read-out: EC50 for wt CHIKV): 0.7 ± 0.08 µM; EC50 (SFV; 32 h): 3.9 ± 3.5 µM; CC50 (Vero E6 cells): > 250 µM; Activity against SINV (SINV): inactive |
| Nc1ncnc2c1ncn2C1C(F)=C(CCO)C(O)C1O (stereo not drawn) [FHNA, 6′-fluoro-homoneplanocin A] | 2.4 | 2.8 ± 0.3 | 8.6 | > 10 | resistant | 1 | 1.2 ± 0.03 | 1.2 ± 0.03 | 1.2 ± 0.1 | > 250 | > 250 | – | – | – | – | EC50 (SFV; Semliki Forest virus, Vero C1008, 32 h): 3.9 to 5.2 µM; EC50 (SFV; 32 h): 5.2 ± 3.2 µM; Reduction of the [32P]m7GMP-nsP1 signal (wt CHIKV nsP1; with or without DTT, 12.5 to 500 μM compound, Fig. 3E): no reduction in the signal; Inhibition of formation of the covalent [32P]m7GMP-nsP1 intermediate (wt SFV nsP1 [1]; modified SFV nsP1 assay lacking DTT, not shown): to a lesser extent; Activity against SINV (SINV): inactive |
| CCC1=NC2C(N=NN2c2cccc(OC(C)C)c2)C(=O)N1 (stereo not drawn) [MADTP-372] | 9.3 | > 25 | <1 | 1.2 ± 0.2 | – | 9.3 | 2.7 ± 0.2 | 2.7 ± 0.2 | > 25 | > 100 | > 100 | completely resistant | cross-resistant | less effectively | in a dose-dependent manner | Inhibition of GTase activity of VEEV nsP1 (VEEV nsP1): inhibit the GTase activity |
| CCNc1nc(C)cc(N2CCN(C(=O)c3ccc(F)cc3)CC2)n1 [CHVB-032] | 14.4 | 52.4 ± 0.8 | 1 | 3.4 ± 0.2 | – | 29.4 | 3.4 ± 0.3 | 3.4 ± 0.3 | > 100 | > 100 | > 100 | – | completely resistant | completely blocked | in a dose-dependent manner | – |
| Nc1ncnc2c1ncn2[C@@H]1O[C@H](C[C@@H](N)CC[C@H](N)C(=O)O)[C@@H](O)[C@H]1O [Sinefungin, reference compound] | <1 | 151 ± 2.5 | 1.5 | 274.5 ± 0.2 | sensitive | <1 | 185 ± 38.4 | 185 ± 38.4 | 110 ± 3.9 | > 1000 | > 1000 | sensitive | sensitive | very inefficient inhibitor | – | Effect on GTase activity in reactions lacking SAM (wt SFV nsP1 [2]; wt SFV nsP1, 50 μM sinefungin, no SAM, Fig. 3B): appeared to stimulate GTase activity; Reduction of the [32P]m7GMP-nsP1 signal (wt CHIKV nsP1; 1 mM compound, Fig. 3D): reduced the signal slightly; Reduction of the [32P]m7GMP-nsP1 signal (wt CHIKV nsP1; 125 to 500 μM compound, Fig. 3D): did not lead to any reduction in the signal; Inhibition of VEEV nsP1 (VEEV nsP1): inhibits; Inhibition of CHIKV nsP1 (CHIKV nsP1): inhibits |
| CCNc1nc(C)cc(N2CCN(C(=O)c3ccc(C)cc3)CC2)n1 [CHVB-066] | 20.8 | > 12.5 | <1 | 0.3 ± 0.04 | – | 20.8 | < 1 | 0.6 ± 0.1 | > 12.5 | – | 25 | completely resistant | – | completely blocked | in a dose-dependent manner | Inhibition of GTase activity of VEEV nsP1 (VEEV nsP1): inhibit the GTase activity |
| NC(=O)c1nc(F)c[nH]c1=O [Favipiravir, reference compound] | 1.2 | 95.9 ± 12.8 | 1.7 | 135 ± 5 | sensitive | 1.1 | – | 79.8 ± 1.4 | 89.5 ± 0.2 | – | – | sensitive | sensitive | – | – | – |
